In the NIST ThermoML archive (doi:10.1021/je8006474):

How the values were obtained:
[1] = 101.33 kPa, Liquid, Pycnometric method
[2] = xn = mol fraction of the nth substance listed; conditions: Pycnometric method

Fc1cc(F)cc(F)c1 [1,3,5-trifluorobenzene]
[1]
Conditions | mass density [kg/m3]
297.2 K | 1268
324.9 K | 1225

Fc1cc(F)c(F)c(F)c1 [1,2,3,5-tetrafluorobenzene] + CCn1cc[n+](C)c1.O=S(=O)([N-]S(=O)(=O)C(F)(F)F)C(F)(F)F
[2]
Conditions | molar volume [m3/mol]
283.5 K, Liquid mixture 1, x1 = 0.659 | 0.0001523
283.5 K, Liquid mixture 2, x1 = 1 | 0.0001053
298.3 K, Liquid mixture 1, x1 = 0.652 | 0.0001562
298.3 K, Liquid mixture 2, x1 = 1 | 0.0001069
316.7 K, Liquid mixture 1, x1 = 0.647 | 0.0001579
316.7 K, Liquid mixture 2, x1 = 1 | 0.0001096
333.2 K, Liquid mixture 1, x1 = 0.638 | 0.0001605
333.2 K, Liquid mixture 2, x1 = 1 | 0.0001119
353.1 K, Liquid mixture 1, x1 = 0.631 | 0.000164
353.1 K, Liquid mixture 2, x1 = 1 | 0.0001149
373 K, Liquid mixture 1, x1 = 0.623 | 0.0001688
373 K, Liquid mixture 2, x1 = 1 | 0.000118

Fc1cc(F)c(F)cc1F [1,2,4,5-tetrafluorobenzene] + CCn1cc[n+](C)c1.O=S(=O)([N-]S(=O)(=O)C(F)(F)F)C(F)(F)F
[2]
Conditions | molar volume [m3/mol]
283.3 K, Liquid mixture 1, x1 = 0.736 | 0.0001422
283.3 K, Liquid mixture 2, x1 = 0.999 | 0.000103
298.2 K, Liquid mixture 1, x1 = 0.731 | 0.0001449
298.2 K, Liquid mixture 2, x1 = 0.999 | 0.0001047
315.5 K, Liquid mixture 1, x1 = 0.725 | 0.0001473
315.5 K, Liquid mixture 2, x1 = 1 | 0.0001074
333.2 K, Liquid mixture 1, x1 = 0.718 | 0.0001508
333.2 K, Liquid mixture 2, x1 = 1 | 0.0001095
353.1 K, Liquid mixture 1, x1 = 0.71 | 0.0001551
353.1 K, Liquid mixture 2, x1 = 1 | 0.0001124
373 K, Liquid mixture 1, x1 = 0.702 | 0.0001595
373 K, Liquid mixture 2, x1 = 1 | 0.0001157

Fc1ccc(F)cc1 [1,4-difluorobenzene] + CCn1cc[n+](C)c1.O=S(=O)([N-]S(=O)(=O)C(F)(F)F)C(F)(F)F
[2]
Conditions | molar volume [m3/mol]
283.4 K, Liquid mixture 1, x1 = 0.816 | 0.0001239
283.4 K, Liquid mixture 2, x1 = 1 | 9.76e-05
294.4 K, Liquid mixture 1, x1 = 0.814 | 0.0001255
294.4 K, Liquid mixture 2, x1 = 1 | 9.88e-05
316.2 K, Liquid mixture 1, x1 = 0.81 | 0.0001288
316.2 K, Liquid mixture 2, x1 = 1 | 0.000101
343.2 K, Liquid mixture 1, x1 = 0.807 | 0.0001337
343.2 K, Liquid mixture 2, x1 = 0.999 | 0.0001038
353.1 K, Liquid mixture 1, x1 = 0.804 | 0.0001354
353.1 K, Liquid mixture 2, x1 = 0.999 | 0.000105
373 K, Liquid mixture 1, x1 = 0.799 | 0.0001387
373 K, Liquid mixture 2, x1 = 0.999 | 0.0001069

Fc1cccc(F)c1F [1,2,3-trifluorobenzene]
[1]
Conditions | mass density [kg/m3]
296 K | 1292
331.6 K | 1240

Fc1cc(F)c(F)c(F)c1F [pentafluorobenzene] + CCn1cc[n+](C)c1.O=S(=O)([N-]S(=O)(=O)C(F)(F)F)C(F)(F)F
[2]
Conditions | molar volume [m3/mol]
283.4 K, Liquid mixture 1, x1 = 0.715 | 0.0001484
283.4 K, Liquid mixture 2, x1 = 0.997 | 0.0001093
298.2 K, Liquid mixture 1, x1 = 0.704 | 0.0001523
298.2 K, Liquid mixture 2, x1 = 0.998 | 0.0001109
316.6 K, Liquid mixture 1, x1 = 0.696 | 0.0001552
316.6 K, Liquid mixture 2, x1 = 0.997 | 0.0001139
333.2 K, Liquid mixture 1, x1 = 0.681 | 0.0001605
333.2 K, Liquid mixture 2, x1 = 1 | 0.0001155
353.1 K, Liquid mixture 1, x1 = 0.669 | 0.0001652
353.1 K, Liquid mixture 2, x1 = 1 | 0.0001187
373 K, Liquid mixture 1, x1 = 0.657 | 0.0001692
373 K, Liquid mixture 2, x1 = 1 | 0.0001228

Fc1ccc(F)c(F)c1 [1,2,4-trifluorobenzene]
[1]
Conditions | mass density [kg/m3]
296.6 K | 1280
330.7 K | 1247

Fc1ccc(F)c(F)c1 [1,2,4-trifluorobenzene] + CCn1cc[n+](C)c1.O=S(=O)([N-]S(=O)(=O)C(F)(F)F)C(F)(F)F
molar volume [m3/mol], [2]
Conditions | Liquid mixture 1, x1 = 0.891 | Liquid mixture 1, x1 = 0.892 | Liquid mixture 1, x1 = 0.893 | Liquid mixture 2, x1 = 0.977
362.4 K | – | – | 0.0001242 | 0.0001135
367.4 K | – | 0.0001247 | – | 0.000114
372.4 K | 0.0001252 | – | – | 0.0001145

Fc1ccccc1F [1,2-difluorobenzene]
[1]
Conditions | mass density [kg/m3]
296.2 K | 1156
331.1 K | 1117

Fc1ccccc1 [fluorobenzene] + CCn1cc[n+](C)c1.O=S(=O)([N-]S(=O)(=O)C(F)(F)F)C(F)(F)F
[2]
Conditions | molar volume [m3/mol]
282.5 K, Liquid mixture 1, x1 = 0.875 | 0.0001125
282.5 K, Liquid mixture 2, x1 = 0.992 | 9.31e-05
297.9 K, Liquid mixture 1, x1 = 0.875 | 0.0001137
297.9 K, Liquid mixture 2, x1 = 0.991 | 9.45e-05
315.5 K, Liquid mixture 1, x1 = 0.874 | 0.000115
315.5 K, Liquid mixture 2, x1 = 0.99 | 9.61e-05
333.2 K, Liquid mixture 1, x1 = 0.872 | 0.0001169
333.2 K, Liquid mixture 2, x1 = 0.989 | 9.84e-05
353.1 K, Liquid mixture 1, x1 = 0.869 | 0.0001197
353.1 K, Liquid mixture 2, x1 = 0.989 | 0.000101
373 K, Liquid mixture 1, x1 = 0.865 | 0.0001231
373 K, Liquid mixture 2, x1 = 0.989 | 0.0001035

Fc1cc(F)cc(F)c1 [1,3,5-trifluorobenzene] + CCn1cc[n+](C)c1.O=S(=O)([N-]S(=O)(=O)C(F)(F)F)C(F)(F)F
[2]
Conditions | molar volume [m3/mol]
283.5 K, Liquid mixture 1, x1 = 0.497 | 0.0001754
283.5 K, Liquid mixture 2, x1 = 1 | 0.0001013
298.2 K, Liquid mixture 1, x1 = 0.498 | 0.0001762
298.2 K, Liquid mixture 2, x1 = 1 | 0.0001035
316.6 K, Liquid mixture 1, x1 = 0.487 | 0.000179
316.6 K, Liquid mixture 2, x1 = 1 | 0.0001057
333.2 K, Liquid mixture 1, x1 = 0.482 | 0.0001815
333.2 K, Liquid mixture 2, x1 = 1 | 0.000108
353.1 K, Liquid mixture 1, x1 = 0.478 | 0.000183
353.1 K, Liquid mixture 2, x1 = 1 | 0.0001108
373 K, Liquid mixture 1, x1 = 0.482 | 0.0001846
373 K, Liquid mixture 2, x1 = 1 | 0.0001144

Fc1cccc(F)c1 [1,3-difluorobenzene] + CCn1cc[n+](C)c1.O=S(=O)([N-]S(=O)(=O)C(F)(F)F)C(F)(F)F
[2]
Conditions | molar volume [m3/mol]
283.3 K, Liquid mixture 1, x1 = 0.757 | 0.000134
283.3 K, Liquid mixture 2, x1 = 1 | 9.82e-05
294.4 K, Liquid mixture 1, x1 = 0.755 | 0.0001363
294.4 K, Liquid mixture 2, x1 = 1 | 9.93e-05
316.1 K, Liquid mixture 1, x1 = 0.753 | 0.0001404
316.1 K, Liquid mixture 2, x1 = 1 | 0.000102
333.3 K, Liquid mixture 1, x1 = 0.748 | 0.0001429
333.3 K, Liquid mixture 2, x1 = 1 | 0.000104
353.1 K, Liquid mixture 1, x1 = 0.742 | 0.000146
353.1 K, Liquid mixture 2, x1 = 1 | 0.0001065
373 K, Liquid mixture 1, x1 = 0.736 | 0.0001492
373 K, Liquid mixture 2, x1 = 1 | 0.000109
